Reference: ChEMBL document CHEMBL1135050, “Design and synthesis of 4,5-disubstituted-thiophene-2-amidines as potent urokinase inhibitors” (Bioorg Med Chem Lett, 2002)
≈ marks a conversion by molar mass, not a printed value.

System: not listed separately
Assay: Compound was evaluated for its solubility in water
Assay type: ADME

| solubility | SMILES |
| --- | --- |
| 9000 µM (≈ 2690 µg/mL) | Cc1sc(C(=N)N)cc1-c1nc(-c2ccccc2)cs1 |
| 300 µM (≈ 99.4 µg/mL) | CSc1sc(C(=N)N)cc1-c1nc(-c2ccccc2)cs1 |
| 2700 µM (≈ 846 µg/mL) | CCc1sc(C(=N)N)cc1-c1nc(-c2ccccc2)cs1 |

Biological target: Urokinase-type plasminogen activator (Homo sapiens, UniProt P00749)
Assay: Inhibition of Human kidney cell urokinase
Assay type: cell-based

| SMILES | Ki |
| --- | --- |
| COc1ccc(-c2csc(-c3cc(C(=N)N)sc3SC)n2)cc1OC | 58 nM |
| COc1sc(C(=N)N)cc1-c1nc(-c2ccccc2)cs1 | 531 nM |
| CS(=O)(=O)c1sc(C(=N)N)cc1-c1nc(-c2ccc(Cl)cc2)cs1 | 2500 nM |
| N=C(N)c1cc(-c2nc(-c3ccc(Cl)cc3)cs2)c(SCc2ccccc2)s1 | 2500 nM |

Continued, values first:

| Ki | SMILES |
| --- | --- |
| 102 nM | CSc1sc(C(=N)N)cc1-c1nc(-c2ccc(Cl)cc2)cs1 |
| 138 nM | CCc1sc(C(=N)N)cc1-c1nc(-c2ccccc2)cs1 |
